Results published in US10933064B2, “Crystalline forms of 5-bromo-2,6-di(1H-pyrazol-1-yl)pyrimidin-4-amine and new salts” (Novartis AG, priority 2017, dated 2021).
≈ marks a conversion by molar mass, not a printed value.

Legend:
[1] = Intrinsic dissolution rate; assay type: physicochemical
[2] = Hygroscopicity, water sorption-desorption isotherm (DVS); assay type: physicochemical
From the text: Crystalline form F is non-hygroscopic.

[3] = Solubility in aqueous buffers and bio-relevant media; conditions: the salt dissociates
[4] = Stability when blended with excipients; assay type: physicochemical; conditions: four excipients (gelatin, HPMC, wet granulation mixture, dry blended mixture), 50° C./75% RH
[5] = Granulation simulation experiments (XRPD, DSC); assay type: physicochemical; conditions: ground at 25° C.
Procedure: The physical stability of crystalline form F was also evaluated in granulation simulation experiments. In these experiments granulating solvent was added dropwise to the crystalline form F until the solid is wetted sufficiently. The mixture was then ground in a mortar/pestle at room temperature (25° C. for 2-3 minutes) between each addition. The crystallinity of the material (post-grinding) was re-evaluated by XRPD and DSC.

[6] = 1 week, 0.1 %, pH 1.2
physchem = conditions: aqueous buffer
[7] = Physical stability on compression (XRPD); assay type: physicochemical; conditions: 5 minutes at 0.5 ton, 0.8 cm diameter disc
Procedure: The crystallinity of form F was evaluated by XRPD after compression for 5 minutes at 0.5 ton with 0.8 cm diameter disc.

[8] = Phase change on exposure to humidity; assay type: physicochemical
[9] = Thermal stability of the crystalline form on heating and cooling (XRPD); assay type: physicochemical; conditions: heating to 220° C. (melt) then cooling to 30° C.
[10] = 1 week

SMILES	intrinsic dissolution ([1]; 0.01N HCl pH=2)	intrinsic dissolution ([1]; acetate buffer pH 4.7)	intrinsic dissolution ([1]; phosphate buffer pH 6.8)	hygroscopicity ([2]; relative humidity above 70%)	solubility compared with free form F [3]	degradation when blended with excipients [4]	intrinsic dissolution ([1]; 0.01N HCl pH=2, listed as form F)	intrinsic dissolution ([1]; acetate buffer pH 4.7, listed as form F)	intrinsic dissolution ([1]; phosphate buffer pH 6.8, listed as form F)	hygroscopicity ([2]; DVS, 25° C.)	moisture absorbed ([2]; DVS, up to 90% relative humidity, 25° C.)	form change after granulation simulation ([5]; ethanol as granulation solvent)	form change after granulation simulation ([5]; water as granulation solvent)	degradation in buffer solution [6]	degradation in buffer solutions [6]	solubility (physchem)	form change after compression [7]	phase change on exposure to humidity [8]	crystalline form after heating and cooling [9]	degradation in bulk [10]
Nc1nc(-n2cccn2)nc(-n2cccn2)c1Br [Form C, 5-bromo-2,6-di(1H-pyrazol-1-yl)pyrimidin-4-amine]	0.0592 mg/cm^2/min	0.0264 mg/cm^2/min	0.0277 mg/cm^2/min	very hygroscopic	does not show any better solubility than the free form F	about 1%														
Nc1nc(-n2cccn2)nc(-n2cccn2)c1Br [Form F, 5-bromo-2,6-di(1H-pyrazol-1-yl)pyrimidin-4-amine]							0.0115 mg/cm^2/min	0.0085 mg/cm^2/min	0.0084 mg/cm^2/min	non-hygroscopic	less than 0.2%	no form change	no form change	1%	less than 0.5%	~100 µg/mL (≈ 327 µM)	no form change	little to no phase change	remains unchanged	less than 1%
